Test results reported in PubChem BioAssay (NCI).
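Exposure lasted 48 hours, with cells grown in 96-well plates and compounds tested at five concentrations. At the GI50, growth is halved. TGI marks complete inhibition of growth.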

How the values were obtained:
Assay in all cases: inhibition of tumour cell growth, NCI panel, 48 h
CCRF-CEM leukemia = tested on: CCRF-CEM leukemia
HCT-15 colon = tested on: HCT-15 colon
SNB-75 CNS = tested on: SNB-75 CNS
SR leukemia = tested on: SR leukemia
HOP-92 NSCLC = tested on: HOP-92 NSCLC
NCI/ADR-RES ovarian = tested on: NCI/ADR-RES ovarian
LOX IMVI melanoma = tested on: LOX IMVI melanoma
PC-3 prostate = tested on: PC-3 prostate
U251 CNS = tested on: U251 CNS
M14 melanoma = tested on: M14 melanoma
MDA-MB-231 breast = tested on: MDA-MB-231 breast
UO-31 renal = tested on: UO-31 renal
NCI-H460 lung = tested on: NCI-H460 lung
COLO 205 colon = tested on: COLO 205 colon
A498 renal = tested on: A498 renal
SK-MEL-5 melanoma = tested on: SK-MEL-5 melanoma
RPMI-8226 leukemia = tested on: RPMI-8226 leukemia
MDA-MB-435 = tested on: MDA-MB-435
786-0 renal = tested on: 786-0 renal
EKVX NSCLC = tested on: EKVX NSCLC
HS 578T breast = tested on: HS 578T breast
K-562 leukemia = tested on: K-562 leukemia
OVCAR-4 ovarian = tested on: OVCAR-4 ovarian
IGROV1 ovarian = tested on: IGROV1 ovarian
SW-620 colon = tested on: SW-620 colon
MOLT-4 leukemia = tested on: MOLT-4 leukemia
NCI-H226 lung = tested on: NCI-H226 lung
ACHN renal = tested on: ACHN renal
DU-145 prostate = tested on: DU-145 prostate
SNB-19 CNS = tested on: SNB-19 CNS
HOP-62 NSCLC = tested on: HOP-62 NSCLC
UACC-257 melanoma = tested on: UACC-257 melanoma
OVCAR-3 ovarian = tested on: OVCAR-3 ovarian
KM12 colon = tested on: KM12 colon
MCF7 breast = tested on: MCF7 breast
UACC-62 melanoma = tested on: UACC-62 melanoma
SN12C renal = tested on: SN12C renal
OVCAR-8 ovarian = tested on: OVCAR-8 ovarian
HCC-2998 colon = tested on: HCC-2998 colon
HT29 colon = tested on: HT29 colon
A549 NSCLC = tested on: A549 NSCLC
OVCAR-5 ovarian = tested on: OVCAR-5 ovarian
RXF 393 renal = tested on: RXF 393 renal
HL-60(TB) leukemia = tested on: HL-60(TB) leukemia
SK-OV-3 ovarian = tested on: SK-OV-3 ovarian
NCI-H522 lung = tested on: NCI-H522 lung
CAKI-1 renal = tested on: CAKI-1 renal
SK-MEL-28 melanoma = tested on: SK-MEL-28 melanoma
BT-549 breast = tested on: BT-549 breast
SK-MEL-2 melanoma = tested on: SK-MEL-2 melanoma
HCT-116 colon = tested on: HCT-116 colon
SF-295 CNS = tested on: SF-295 CNS
T-47D breast = tested on: T-47D breast
SF-539 CNS = tested on: SF-539 CNS
SF-268 CNS = tested on: SF-268 CNS
MALME-3M melanoma = tested on: MALME-3M melanoma
NCI-H23 lung = tested on: NCI-H23 lung

CC(C)(c1ccccc1)c1cc(O)c(C(C)(C)c2ccccc2)cc1O
GI50 (CCRF-CEM leukemia): 3 µM
TGI (CCRF-CEM leukemia): 13.6 µM
GI50 (HCT-15 colon): 2.35 µM
TGI (HCT-15 colon): 10.1 µM
GI50 (SNB-75 CNS): 1.51 µM
TGI (SNB-75 CNS): 11.5 µM
GI50 (SR leukemia): 3 µM
TGI (SR leukemia): 9.86 µM
GI50 (HOP-92 NSCLC): 1.75 µM
TGI (HOP-92 NSCLC): 6.66 µM
GI50 (NCI/ADR-RES ovarian): 2.7 µM
TGI (NCI/ADR-RES ovarian): 12.1 µM
GI50 (LOX IMVI melanoma): 1.54 µM
TGI (LOX IMVI melanoma): 3.82 µM
GI50 (PC-3 prostate): 1.96 µM
TGI (PC-3 prostate): 10.9 µM
GI50 (U251 CNS): 2.14 µM
TGI (U251 CNS): 9.97 µM
GI50 (M14 melanoma): 1.82 µM
TGI (M14 melanoma): 4.99 µM
GI50 (MDA-MB-231 breast): 1.43 µM
TGI (MDA-MB-231 breast): 6.28 µM
GI50 (UO-31 renal): 2.1 µM
TGI (UO-31 renal): 11.3 µM
GI50 (NCI-H460 lung): 2.23 µM
TGI (NCI-H460 lung): 7.53 µM
GI50 (COLO 205 colon): 1.66 µM
TGI (COLO 205 colon): 3.4 µM
GI50 (A498 renal): 2.16 µM
TGI (A498 renal): 10.1 µM
GI50 (SK-MEL-5 melanoma): 1.02 µM
TGI (SK-MEL-5 melanoma): 2.65 µM
GI50 (RPMI-8226 leukemia): 1.37 µM
TGI (RPMI-8226 leukemia): 14.3 µM
GI50 (MDA-MB-435): 1.43 µM
TGI (MDA-MB-435): 8.85 µM
GI50 (786-0 renal): 2.67 µM
TGI (786-0 renal): 9.38 µM
GI50 (EKVX NSCLC): 1.94 µM
TGI (EKVX NSCLC): 12.5 µM
GI50 (HS 578T breast): 3.19 µM
TGI (HS 578T breast): 19.6 µM
GI50 (K-562 leukemia): 1.85 µM
TGI (K-562 leukemia): 12.2 µM
GI50 (OVCAR-4 ovarian): 1.26 µM
TGI (OVCAR-4 ovarian): 9.92 µM
GI50 (IGROV1 ovarian): 2.7 µM
TGI (IGROV1 ovarian): 13.3 µM
GI50 (SW-620 colon): 2.77 µM
TGI (SW-620 colon): 14.6 µM
GI50 (MOLT-4 leukemia): 1.72 µM
TGI (MOLT-4 leukemia): 7.82 µM
GI50 (NCI-H226 lung): 1.09 µM
TGI (NCI-H226 lung): 16 µM
GI50 (ACHN renal): 2.7 µM
TGI (ACHN renal): 12.2 µM
GI50 (DU-145 prostate): 3.83 µM
TGI (DU-145 prostate): 16.2 µM
GI50 (SNB-19 CNS): 2.91 µM
TGI (SNB-19 CNS): 12.1 µM
GI50 (HOP-62 NSCLC): 3.06 µM
TGI (HOP-62 NSCLC): 13.4 µM
GI50 (UACC-257 melanoma): 2.1 µM
TGI (UACC-257 melanoma): 10.7 µM
GI50 (OVCAR-3 ovarian): 2.53 µM
TGI (OVCAR-3 ovarian): 8 µM
GI50 (KM12 colon): 1.96 µM
TGI (KM12 colon): 10.8 µM
GI50 (MCF7 breast): 2.1 µM
TGI (MCF7 breast): 11.2 µM
GI50 (UACC-62 melanoma): 1.71 µM
TGI (UACC-62 melanoma): 4.93 µM
GI50 (SN12C renal): 2.46 µM
TGI (SN12C renal): 11.5 µM
GI50 (OVCAR-8 ovarian): 3.75 µM
TGI (OVCAR-8 ovarian): 20.9 µM
GI50 (HCC-2998 colon): 2.98 µM
TGI (HCC-2998 colon): 12.8 µM
GI50 (HT29 colon): 1.64 µM
TGI (HT29 colon): 8.91 µM
GI50 (A549 NSCLC): 2.77 µM
TGI (A549 NSCLC): 13.4 µM
GI50 (OVCAR-5 ovarian): 2.63 µM
TGI (OVCAR-5 ovarian): 8.58 µM
GI50 (RXF 393 renal): 1.83 µM
TGI (RXF 393 renal): 6.85 µM
GI50 (HL-60(TB) leukemia): 1.84 µM
TGI (HL-60(TB) leukemia): 5.53 µM
GI50 (SK-OV-3 ovarian): 3.55 µM
TGI (SK-OV-3 ovarian): 14.5 µM
GI50 (NCI-H522 lung): 3.67 µM
TGI (NCI-H522 lung): 16.7 µM
GI50 (CAKI-1 renal): 1.71 µM
TGI (CAKI-1 renal): 11.4 µM
GI50 (SK-MEL-28 melanoma): 2.81 µM
TGI (SK-MEL-28 melanoma): 14 µM
GI50 (BT-549 breast): 1.57 µM
TGI (BT-549 breast): 5.31 µM
GI50 (SK-MEL-2 melanoma): 2.96 µM
TGI (SK-MEL-2 melanoma): 13.9 µM
GI50 (HCT-116 colon): 1.35 µM
TGI (HCT-116 colon): 3.36 µM
GI50 (SF-295 CNS): 1.33 µM
TGI (SF-295 CNS): 3.23 µM
GI50 (T-47D breast): 1.81 µM
TGI (T-47D breast): 12.7 µM
GI50 (SF-539 CNS): 2.73 µM
TGI (SF-539 CNS): 9.59 µM
GI50 (SF-268 CNS): 2.99 µM
TGI (SF-268 CNS): 12.8 µM
GI50 (MALME-3M melanoma): 2.32 µM
TGI (MALME-3M melanoma): 12.3 µM
GI50 (NCI-H23 lung): 2.27 µM
TGI (NCI-H23 lung): 16.2 µM
